Data: patent publication US20120184532A1 (priority 2009, published 2012)
“And” between values parts separate entries of the source, which are not always exact repeats. Equal values may be shown once. “Also recorded” adds a separate entry of the source. Where a name gives a salt, the structure may show the parent alone.

Assays:
ferret = test: Emetic activity (retching and vomiting) in the ferret; conditions: for animals dosed that retched / animals dosed that vomited: 20 mg (free base)/kg or similar molar dose, oral; for Time (min) to onset of: Retching / Time (min) to onset of: Vomiting / Total number of individual incidences of: Retching / Total number of individual incidences of: Vomiting: 2 hr. observation
[1] = system: rabbit stomach circular smooth muscle; test: Ex vivo rabbit stomach circular smooth muscle, electrical field stimulation; conditions: rabbit stomach strips, EFS, 100 nM to 100 μM
Sprague Dawley rat = test: PICA behavior (kaolin consumption) as surrogate for emesis in the rat; assay type: in vivo; conditions: for rat kaolin consumption (g) over 24 h post-dose: single subcutaneous dose 3.5 mg base/kg
Experimental: This is a well established model for this purpose in the rat (Takeda N et al (1993) 45 817-21).
Once determined, a comparison was made of the effects of these doses on kaolin consumption over a 0-96 hour period in 24 h increments.
In detail groups of 10 male Sprague Dawley rats were habituated to kaolin for 3 days, then singly housed in grid-bottomed cages and habituated for a further 2 days prior to dosing. On the day of drug administration, the animals were food-deprived for 1 h prior to dosing. […] Access to a weighed quantity of food and kaolin was then restored. Food and kaolin was weighed 24, 48, 72 and 96 h after dosing.

[2] = system: human stomach circular smooth muscle; test: Ex vivo human stomach circular smooth muscle, electrical field stimulation; conditions: human stomach strips, EFS, 100 nM to 100 μM
rat = test: Comparative acute toxicity (behavior) of sc and po galantamine in the rat; assay type: in vivo; conditions: individual rats
[3] = target: T1, Acetylcholinesterase (h), human recombinant (HEK-293 cells) (Homo sapiens, UniProt P22303); test: In vitro human acetylcholine esterase inhibition; assay type: biochemical; conditions: in contrast to galantamine
T1 construct: host or cells: HEK-293 cells
T1 sequence (P22303 32-614): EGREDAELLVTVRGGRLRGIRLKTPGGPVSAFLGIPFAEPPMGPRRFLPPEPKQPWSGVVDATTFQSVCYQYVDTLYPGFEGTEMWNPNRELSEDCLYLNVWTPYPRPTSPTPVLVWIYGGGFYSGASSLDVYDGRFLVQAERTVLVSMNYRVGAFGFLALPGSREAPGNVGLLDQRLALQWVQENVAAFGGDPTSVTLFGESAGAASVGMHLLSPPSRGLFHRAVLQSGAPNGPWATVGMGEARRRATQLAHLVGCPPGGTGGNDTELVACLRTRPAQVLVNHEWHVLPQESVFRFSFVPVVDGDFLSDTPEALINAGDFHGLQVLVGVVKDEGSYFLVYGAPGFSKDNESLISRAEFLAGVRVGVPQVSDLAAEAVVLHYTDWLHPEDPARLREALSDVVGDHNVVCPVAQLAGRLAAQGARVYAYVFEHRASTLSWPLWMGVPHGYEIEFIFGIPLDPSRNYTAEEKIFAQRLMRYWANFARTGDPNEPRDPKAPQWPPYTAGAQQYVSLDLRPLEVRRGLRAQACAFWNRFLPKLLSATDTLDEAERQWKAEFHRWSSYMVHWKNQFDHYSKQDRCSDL

[4] = 20 mg/kg p.o., individual animals, listed as Galantamine HBr, hydrobromide, 20 mg/kg
[5] = 40 mg/kg as base p.o., individual animals
[6] = 20 mg/kg p.o., individual animals, listed as Galantamine valine ester tartrate, 20 mg/kg

Structure (SMILES): COc1ccc2c3c1O[C@H]1C[C@@H](O)C=C[C@@]31CCN(C)C2 [Galantamine, (4aS,6R,8aS)-4a,5,9,10,11,12-hexahydro-3-methoxy-11-methyl-6H-benzofuro[3a,3,2ef][2]benzazepin-6-ol hydrobromide]
- animals dosed that retched (ferret): 55%
- animals dosed that vomited (ferret): 40%
- Time (min) to onset of: Retching (ferret; [4]): 6 min (2×) and 33 min and 3 min and 5 min (3×) and >120 min (8×) and 41 min and 11 min and 10 min and 7 min (2×)
- Time (min) to onset of: Vomiting (ferret; [4]): 41 min and 33 min and 75 min and 5 min (2×) and >120 min (11×) and 37 min and 10 min and 13 min and 6 min
- Total number of individual incidences of: Retching (ferret; [4]): 22 and 21 and 29 and 18 and 0 (9×) and 31 and 3 (2×) and 6 and 2 and 5 and 13
- Total number of individual incidences of: Vomiting (ferret; [4]): 1 (6×) and 4 (2×) and 0 (11×) and 2
- stimulation of smooth muscle contractions (change in force production) [1]: evidence of a dose response
- rat kaolin consumption (g) over 24 h post-dose (Sprague Dawley rat; Mean): 0.25 g
- rat kaolin consumption (g) over 24 h post-dose (Sprague Dawley rat; individual rats, hydrobromide): 0.67 g and 0.36 g and 0.88 g and 0.08 g and 0.00 g (3×) and 0.21 g and 0.05 g
- stimulation of smooth muscle contractions (change in force production) [2]: evidence of a dose response
- rat behavior (rat; 3.5 mg/kg sc, 2 min post dose, hydrobromide): Rat 1: purposeless chewing, mouth; also recorded: Rat 3: purposeless chewing, mouth
- rat behavior (rat; 3.5 mg/kg sc, 5 min post-dose, hydrobromide): Rat 3: As per 2 min; also recorded: Rat 1: purposeless chewing, mouth
- rat behavior (rat; 3.5 mg/kg sc, 10 min post-dose, hydrobromide): Rat 1: Tremors, flattened rostral body; also recorded: Rat 3: purposeless chewing, mouth
- rat behavior (rat; 3.5 mg/kg sc, 20 min post-dose, hydrobromide): Rat 1: Quiescent, flattened body posture,; also recorded: Rat 3: Some ambulation restored
- rat behavior (rat; 3.5 mg/kg sc, 30 min post-dose, hydrobromide): Rat 1: Quiescent, flattened body posture,; also recorded: Rat 3: Some ambulation restored
- rat behavior (rat; 3.5 mg/kg sc, 45 min post-dose): Rat 1: food consumption and more
- rat behavior (rat; 3.5 mg/kg sc, 1 h, hydrobromide): Rat 1: Normal; also recorded: Rat 3: Normal
- rat behavior (rat; 40 mg/kg po, 10 min post-dose, hydrobromide): Rat 6: Quiescent, purposeless; also recorded: Rat 7: Quiescent, purposeless chewing,
- rat behavior (rat; 40 mg/kg po, 20 min post-dose, hydrobromide): Ratc 6 as per 10 min + arching; also recorded: Rat 7: grooming + purposeless
- rat behavior (rat; 40 mg/kg po, 30 min post-dose): Rat 6: quiescent, purposeless chewing,
- rat behavior (rat; 40 mg/kg po, 45 min post-dose, hydrobromide): Rat 6: flattened body posture, chewing,; also recorded: Rat 7: grooming, sawdust consumption
- rat behavior (rat; 40 mg/kg po, 1 h, hydrobromide): Rat 6: flattened body posture, tremor; also recorded: Rat 7: Grooming, sawdust
- rat behavior (rat; 40 mg/kg po, 1.5 h, hydrobromide): Rat 7: quiet, falttened posture
- rat behavior (rat; 40 mg/kg po, 2 h, hydrobromide): Rat 6: much improved; also recorded: Rat 7: much improved
- rat behavior (rat; 40 mg/kg po, 3 h, hydrobromide): Rat 6: normal; also recorded: Rat 7: normal

Structure (SMILES): COc1ccc2c3c1O[C@H]1C[C@@H](OC(=O)CCCC(=O)Nc4ccc(C(=O)O)cc4)C=C[C@@]31CCN(C)C2 [Galantamine [glutaryl-PABA] ester]
- inhibitory actions toward human acetylcholine esterase (in words) [3]: significantly less inhibitory actions

Structure (SMILES): COc1ccc2c3c1O[C@H]1C[C@@H](OC(=O)CCC(=O)N[C@H](C(=O)O)C(C)C)C=C[C@@]31CCN(C)C2 [Galantamine succinyl valine ester]
- inhibitory actions toward human acetylcholine esterase (in words) [3]: significantly less inhibitory actions
- Time (min) to onset of: Retching (ferret; 40 mg/kg as base p.o., Mean): >120 min
- Time (min) to onset of: Vomiting (ferret; 40 mg/kg as base p.o., Mean): >120 min
- Total number of individual incidences of: Retching (ferret; 40 mg/kg as base p.o., Mean): 0
- Total number of individual incidences of: Vomiting (ferret; 40 mg/kg as base p.o., Mean): 0
- Time (min) to onset of: Retching (ferret; [5]): >120 min
- Time (min) to onset of: Vomiting (ferret; [5]): >120 min
- Total number of individual incidences of: Retching (ferret; [5]): 0
- Total number of individual incidences of: Vomiting (ferret; [5]): 0
- retching or vomiting observed (in words) (ferret; oral 40 mg galantamine (free base equivs)/kg): no retching or vomiting at all
- stimulation of smooth muscle contractions (change in force production) [1]: complete absence of any such effect
- Cumulative mean ± SD kaolin consumption (Sprague Dawley rat; 11.75 mg base/kg po (galantamine free base content), 24 h): 0.14 ± 0.20 g
- Cumulative mean ± SD kaolin consumption (Sprague Dawley rat; 11.75 mg base/kg po (galantamine free base content), 48 h): 0.29 ± 0.24 g
- Cumulative mean ± SD kaolin consumption (Sprague Dawley rat; 11.75 mg base/kg po (galantamine free base content), 72 h): 0.48 ± 0.27 g
- Cumulative mean ± SD kaolin consumption (Sprague Dawley rat; 11.75 mg base/kg po (galantamine free base content), 96 h): 0.57 ± 0.40 g
- Cumulative mean ± SD kaolin consumption (Sprague Dawley rat; 23.5 mg base/kg po (galantamine free base content), 24 h): 0.31 ± 0.53 g
- Cumulative mean ± SD kaolin consumption (Sprague Dawley rat; 23.5 mg base/kg po (galantamine free base content), 48 h): 0.61 ± 0.69 g
- Cumulative mean ± SD kaolin consumption (Sprague Dawley rat; 23.5 mg base/kg po (galantamine free base content), 72 h): 0.95 ± 0.96 g
- Cumulative mean ± SD kaolin consumption (Sprague Dawley rat; 23.5 mg base/kg po (galantamine free base content), 96 h): 1.25 ± 1.31 g
- Cumulative mean ± SD kaolin consumption (Sprague Dawley rat; 47 mg base/kg po (galantamine free base content), 24 h): 0.15 ± 0.18 g
- Cumulative mean ± SD kaolin consumption (Sprague Dawley rat; 47 mg base/kg po (galantamine free base content), 48 h): 0.40 ± 0.18 g
- Cumulative mean ± SD kaolin consumption (Sprague Dawley rat; 47 mg base/kg po (galantamine free base content), 72 h): 0.63 ± 0.28 g
- Cumulative mean ± SD kaolin consumption (Sprague Dawley rat; 47 mg base/kg po (galantamine free base content), 96 h): 0.91 ± 0.45 g
- Cumulative mean ± SD kaolin consumption (Sprague Dawley rat; 47 mg base/kg po (galantamine free base content), 96 h, listed as GSVE): 0.91 ± 0.45 g
- stimulation of smooth muscle contractions (change in force production) [2]: complete absence of any such effect

Structure (SMILES): COc1ccc2c3c1O[C@H]1C[C@@H](OC(=O)[C@@H](N)C(C)C)C=C[C@@]31CCN(C)C2 [Galantamine-(S)-valine ester, galantamine-(S)-valine ester tartrate]
- animals dosed that retched (ferret): 45%
- animals dosed that vomited (ferret): 18%
- Total number of individual incidences of: Retching (ferret; 20 mg/kg p.o., Mean): 3.9
- Time (min) to onset of: Retching (ferret; [6]): >120 min (6×) and 35 min and 11 min and 9 min and 6 min
- Time (min) to onset of: Vomiting (ferret; [6]): >120 min (9×) and 44 min and 9 min
- Total number of individual incidences of: Retching (ferret; [6]): 0 (6×) and 22 and 2 (2×) and 3 and 14
- Total number of individual incidences of: Vomiting (ferret; [6]): 0 (9×) and 1 and 3
